Numbers after ± are expanded uncertainties.
Assays:
[1] = refractive index (Na D-line) (dimensionless); mn = molality of the nth substance listed, in mol/kg; details: 86.8 kPa, Liquid, Standard Abbe refractometry, m2 = 0
[2] = refractive index (Na D-line) (dimensionless); details: 86.8 kPa, Liquid, Standard Abbe refractometry
[3] = 86.8 kPa, Liquid; for speed of sound: Frequency=3 MHz, Sing-around technique in a fixed-path interferometer; for mass density: Vibrating tube method

Row | Structure (SMILES) | refractive index ([1]; 288.15 K) | refractive index ([1]; 298.15 K) | refractive index ([1]; 308.15 K) | refractive index ([1]; 318.15 K) | refractive index ([2]; 288.15 K) | refractive index ([2]; 298.15 K) | refractive index ([2]; 308.15 K) | refractive index ([2]; 318.15 K) | speed of sound ([3]; 288.15 K) | mass density ([3]; 288.15 K) | speed of sound ([3]; 298.15 K) | mass density ([3]; 298.15 K) | speed of sound ([3]; 308.15 K) | mass density ([3]; 308.15 K) | speed of sound ([3]; 318.15 K) | mass density ([3]; 318.15 K)
1 | O [water] + CCCCn1cc[n+](C)c1.O=C([O-])c1ccccc1O | 1.3329 ± 0.004 | 1.3323 ± 0.004 | 1.3316 ± 0.004 | 1.3305 ± 0.004 | – | – | – | – | – | – | – | – | – | – | – | –
2 | CCCCn1cc[n+](C)c1.O=C([O-])c1ccccc1O [1-butyl-3-methylimidazolium salicylate] | – | – | – | – | 1.6503 ± 0.004 | 1.647 ± 0.004 | 1.6442 ± 0.004 | 1.6413 ± 0.004 | 1721.6 ± 2.4 m/s | 1155.72 ± 1.6 kg/m3 | 1679.2 ± 2.4 m/s | 1148.81 ± 1.6 kg/m3 | 1640.9 ± 2.4 m/s | 1142.02 ± 1.6 kg/m3 | 1606.1 ± 2.4 m/s | 1135.41 ± 1.6 kg/m3

From the NIST ThermoML archive (doi:10.1016/j.tca.2016.05.013)
